Test [1] relates to HT-29 colon carcinoma xenograft tumors. The note with it: Tc-99m labeled, i.v., 22 hours after injection.
Protocol: Biodistribution and imaging studies were conducted using female Nu/Nu HT-29 xenograft tumor-bearing mice, a model for colon carcinoma. […] Two μg of the test compounds were labeled with 100 μCi of Tc-99m and each was injected into 10 Nu/Nu mice bearing HT-29 tumors on the flank. The organs of interest were removed from half the mice at 3 hr, and the organs of the remaining mice were removed at 22 h. Each set of organs were counted for gamma radiation.
Twenty μg of each construct was dissolved in 20 mM sodium acetate, pH 4.5, at a minimum concentration of 30 μg/mn. The pH was checked and adjusted as necessary. A 50 mCi vial of ^99m TcO4 Na (Syncor) was added to a vial of Glucoscan® (Dupont) in a leaded glass shield using a shielded tuberculin syringe. 100 μL of the resulting solution was dose calibrated, and the volume required for 20 doses of 100 μCi was calculated (ca. 40-45 μL). This amount was divided into two equal parts and added to the two solutions of construct in microfuge tubes and incubated for 1 h at 37° C. Percent chelation was checked by chromatography on ITLC developed with 0.9% saline, and analyzed by autoradiography counter. The two solutions were diluted to 2.2 mL each with 0.9% saline. The diluted solutions werethen divided into numbered tuberculin syringes (200 μL each). […]
Dissected tissues were weighed, and their content of Tc-99m was determined by gamma counting.
Test [2] deals with T1, I-125-GRP binding to NIH-3T3 cells (Mus musculus, UniProt P21729).
T1 construct: Murine NIH-3T3 fibroblast cells (ATCC No. CCL92) were released from flasks; endogenous in cells; host or cells: NIH-3T3 murine fibroblasts (ATCC No. CCL92), whole cells
The test can be described thus: In vitro receptor binding assay: inhibition of binding of I-125-GRP to NIH-3T3 cells. Also on record: species or system Murine. The note with it: for IC50: […] 125I-GRP, 30 min RT, read-out: IC50, inhibition of binding of labeled GRP to NIH-3T3 cells; for Binding of competing ligand relative to control ligand Neuromedin C: competition with 125I-GRP. As for the experimental part:
Murine NIH-3T3 fibroblast cells (ATCC No. CCL92) were released from flasks with EDTA harvest buffer, consisting of 0.6 mm EDTA, 25 mm PBS (8 g NaCl, 0.2 g KCl, 1.44 g Na2 PO4, 0.2 g KH2 PO4 per liter), pH 7.4, 37° C., by incubation for 15 min.
The cells were washed twice with Assay Buffer (50 mM Tris-HCl, 100 mM NaCl, 0.1% BSA, 0.1 mg/mL bacitracin, 0.05 mg/mL aprotinin, 1 mM PMSF), pH 7.4, 4° C. and resuspended at a density of 3×10^6 cells/mL.
A 0.5 mL Eppendorf tube was prepared for each assay point by incubating the tube overnight with a blocking solution of 1% BSA, 50 mM Tris. HCl, 100 mM NaCl, pH 7.4. The blocking solution was removed.
Each tube was charged with 4×10^4 cells. […] Three control tubes with no cells or competitor were prepared for measurement of total counts added.
The samples were incubated for 30 min at RT. The contents of each tube were transferred into the wells of a 96-well filter bottom plate (Millipore Multiscreen, Arlington Heights, Mass.) and filtered under moderate vacuum (water aspirator). Each filter was washed three times by filling each well with ice cold PBS, Ph 7.4, 0.1% BSA. The plate was allowed to dry. Dried filters were placed into gamma-counter tubes (12×75 mm glass). The radioactivity on each filter and in the control tubes was counted using a LKB gamma counter. The bound/total added for each assay tube was calculated.

T1 sequence (P21729 whole entry): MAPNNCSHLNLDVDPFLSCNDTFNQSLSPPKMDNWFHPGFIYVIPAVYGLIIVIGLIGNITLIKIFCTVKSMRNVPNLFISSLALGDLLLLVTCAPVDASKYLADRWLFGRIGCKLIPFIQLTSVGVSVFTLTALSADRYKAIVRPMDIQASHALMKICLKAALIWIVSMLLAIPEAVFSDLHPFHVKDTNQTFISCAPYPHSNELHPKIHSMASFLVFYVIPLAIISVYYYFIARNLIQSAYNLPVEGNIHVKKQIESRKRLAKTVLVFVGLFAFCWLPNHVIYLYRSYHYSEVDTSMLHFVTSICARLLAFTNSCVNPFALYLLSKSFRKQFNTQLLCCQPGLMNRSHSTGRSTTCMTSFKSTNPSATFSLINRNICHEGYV

In the case of “Benzoic acid bis-thiosemicarbazide derived from N-acetyl-Neuromedin C-hydrazide [Compound 6]”, the “Localization to HT-29 tumors” value in test [1] is listed as “evident”. Besides, in test [2], the half-maximal inhibitory concentration (IC50) was 43.3 nM and the “Binding of competing ligand relative to control ligand Neuromedin C” value was “within an order of magnitude of the control ligand Neuromedin C”.
In the same order, the values of “Benzoic acid bis-thiourea derived from Neuromedin-C [Compound 3]” are “evident”, 10.6 nM and “within an order of magnitude of the control ligand Neuromedin C”.

(Values after patent US5593656A, “Metal-binding targeted polypeptide constructs” (Cytogen Corporation, priority 1995, dated 1997).)
